What was measured:
Listeria innocua = experiment: Preliminary growth inhibition test; assay type: cell-based; conditions: 37° C., 20 hours
From the text: (§1) Antimicrobial activity was investigated using Salmonella Typhimurium and Listeria innocua.

[1] = tested on: Salmonella Typhimurium DSMZ 554; experiment: Preliminary growth inhibition test; assay type: cell-based; conditions: 37° C., 24 hour
From the text: as §1

[2] = tested on: Br. thermosphacta CRA7883; experiment: Bioscreen growth inhibition test; assay type: cell-based, Brochothrix thermosphacta; conditions: BS010420, 72 h at 25° C., APP20010213
Experimental: For broth cultures and Bioscreen testing most bacteria were grown in Brain Heart Infusion (BHI, Oxoid, pH 7.4). Lactobacillus sake A10 was grown in de Man, Rogosa, Sharpe medium ([…], Oxoid). Yeasts were grown in Sabouraud Liquid medium (SLM, Oxoid). Most bacteria were cultured at 30° C. Lactic acid bacteria were grown on solid medium in enriched CO2 atmosphere. Clostridium species were grown in Reinforced Clostridial Medium (RCM) at 37° C. anaerobically. Brochothrix thermosphacta fungi and yeasts were grown at 25° C. Fungi were cultured on Malt Extract Agar (MEA, Oxoid).
An automated Microbiology Reader Bioscreen C was used to measure growth curves of the strains in the presence and absence of APP. The Bioscreen C measures the development of turbidity (i.e. growth) kinetically by vertical photometry in 200 wells of a honeycomb microtitre plate, simultaneously. The system consists of a Bioscreen C analyser, which is an incubator and measurement unit, integrated with a PC, software (BioLink v 5.30), printer and a ‘Honeycomb 2’ cuvette multiwell plate. Growth curve data can be analysed within the BioLink software or exported to programs such as Excel.
Broth culture media were dispensed in 270 μl volumes into the wells as directed. […] (depending on the micro-organism under investigation) with readings taken every 20 minutes after the trays were shaken. […]

Ps. fluorescens 327 = experiment: Chicken soup trial at 8° C.; assay type: cell-based, Pseudomonas fluorescens; conditions: chicken soup at 8° C., TCSM010521, APP215
From the text: A local supermarket brand of cream of chicken soup was used as a model food system. 600 g packs were purchased from the local supermarket. This was a ‘fresh home-made type’ of soup that was stored in the chill cabinet, with a short shelf life. It was chosen because it is a rich, nutritious food system containing a range of food components including meat, dairy and vegetable.
Ingredients were labelled as: chicken stock (water, duck fat, chicken, salt, flavourings, yeast extracts, pork gelatine, glucose syrup, vegetable concentrate, milk protein, sugar, malto-dextrin, vegetable oil, citric acid, lactose, chicken fat), ilk, chicken (9%), cream (8%), onion, potato, vegetable oil, modified maize starch, wheat flour, lemon juice, salt, white pepper. pH 5.912. Protein: 3.3%; carbohydrate: 4.7%; fat: 7.2%; fibre: 0.2%; sodium: 0.1%
For the test the soup was mixed 2:1 in water (to facilitate sampling and mixing) and sterilised by autoclaving at 121° C. for 15 minutes. For each experiment the pH of the soup was recorded; this was between pH 5.79-5.88.
For TCS010521/8 (incubated at 8° C.), samples were prepared in 27.8 g quantities. 1.5 g of an APP stock solution was added, and the tests inoculated with 0.3 ml of a suitably diluted cell or spore suspension to give a final inoculum of ca. 10^3 cfu/g. APP was tested at 0, 500 and 1000 ppm, and batch number APP20010213 (at 169 mg/ml) was used. The tests were sampled by viable count and then incubated at 8° C. and tested on a twice-weekly basis.

B. cereus 204 = experiment: Test in cooked sausage meat slurry; assay type: cell-based, Bacillus cereus
From the text: 500 g of bologna sausage meat mixture was mixed with 500 g Brain Heart Infusion broth (BHIB) to make a homogeneous slurry. The bologna sausage meat mix comprised (g per kg): lean beef 320; lean pork 202; lard 250; water 40; glucose 5; starch 155; spice mix 3.75; sodium glutamate 0.5; sodium erythorbate 0.545; sodium di-phosphate 3; NaCl 20; sodium nitrite 0.15. 200 g samples of the meat slurry were autoclaved. While the meat was still warm it was re-mixed thoroughly. When the meat had cooled it was inoculated with 2 ml of 10^5 cfu/ml spore or cell suspension, and re-mixed again. Each inoculated meat sample was divided into 3×50 g samples, and 1 ml of either SDW, 2.5% or 5% APP solution (batch number APP 20010215) was added to prepare meat samples containing 0, 500 and 1000 ppm APP. The meat slurry was again shaken thoroughly to ensure even mixing, an initial viable count was taken and the samples incubated at 8° C. Samples were taken at twice-weekly intervals. The pH of the sausage meat slurry was 6.2.

TAVC = experiment: Inoculated test in raw meat; assay type: cell-based; conditions: 2000 ppm; inoculated raw meat at 8° C., TRM010620; TAVC 10^6 rising to >10^7 cfu/g
Experimental: Fresh beef steak was purchased from the local butcher, and minced on clean machinery. The raw meat (ca. pH 6.2) was divided into 8×90 samples and inoculated-with 10^3 cfu/ml of test organisms. The meat was mixed thoroughly using a stomacher. 10 g of SDW or 2% APP (Batch number APP20010215) was added, and the meat was again thoroughly mixed. An initial viable count was taken, the meat was incubated at 8° C., and sampled on the following days using non-selective agar (MPCA) and selective agar: XLD for Salmonella; Oxford selective agar (Listeria monocytogenes); and STAA agar (Brochothrix thermosphacta). The pH of the raw meat was pH 5.3.

For O=C1CC(CO)OC=C1O (stereo not drawn) [APP, Ascopyrone P], the “Inhibition of bacterial growth” value (Listeria innocua; 500 μg/ml APP, 10e3 cfu/ml) was “slight inhibition”, the “Inhibition of bacterial growth” value (Listeria innocua; 500 μg/ml APP, 10e5 cfu/ml) was “almost no inhibition” and the “Inhibition of bacterial growth” value (Listeria innocua; 1000 μg/ml APP, 10e3 cfu/ml) was “intermediate inhibition”. For the same compound, the “Inhibition of bacterial growth” value (Listeria innocua; 1000 μg/ml APP, 10e5 cfu/ml) was “slight inhibition”, the “Inhibition of bacterial growth” value (Listeria innocua; 2000 μg/ml APP, 10e3 cfu/ml) was “almost complete inhibition” and the “Inhibition of bacterial growth” value (Listeria innocua; 2000 μg/ml APP, 10e5 cfu/ml) was “intermediate inhibition”. For the same compound, the Inhibitory effect (Listeria innocua; 10e3 or 10e5 cfu/ml) was “satisfactory inhibitory effect”, the “Inhibition of bacterial growth” value ([1]; 500 μg/ml APP) was “Intermediate inhibition” and the “Inhibition of bacterial growth” value ([1]; 1000 μg/ml APP) was “strong inhibition”. For the same compound, the “Inhibition of bacterial growth” value ([1]; 2000 μg/ml APP, 10e3 and 10e5 cfu/ml) was “complete inhibition”, the “Inhibition of bacterial growth” value ([1]; 4000 μg/ml APP, 10e3 and 10e5 cfu/ml) was “complete inhibition” and the Inhibitory effect ([1]; 10e3 or 10e5 cfu/ml) was “satisfactory inhibitory effect”. For the same compound, the “APP level causing significant inhibition” value [2] was 2000 ppm, the “APP level causing total inhibition” value [2] was 4000 ppm and the Effect on growth (Ps. fluorescens 327; 500 ppm) was “Little effect with 500 ppm”. For the same compound, the Counts undetectable (Ps. fluorescens 327; 1000 ppm) was “At 1000 ppm counts undetectable >7 d”, the “Total inhibition for” value (Ps. fluorescens 327; 1000 ppm) was “Total inhibition by 1000 ppm for >27 days” and the “10^6 reached at” value (B. cereus 204; 1000 ppm, cooked sausage meat slurry at 8° C., TSM010605, controls 5 d) was 7 d. The Effect on growth (B. cereus 204; 1000 ppm, cooked sausage meat slurry at 8° C., pH 6.2, TSM010605) was “No total inhibition”, the “Partial inhibition (effect on growth of target organism by APP)” value (B. cereus 204; Cooked sausage meat slurry at 8° C. pH 6.2, (1000)) was “B. cereus (1000)” and the “Effect of APP” value (TAVC) was “No significant effect”.

Source: patent US20030203963A1, “Antimicrobial agent” (priority 2001, published 2003)
